Consider eleven compounds from PubChem BioAssay (NCI).

Test systems include UACC-62 melanoma; PC-3 prostate; SF-295 CNS; NCI-H522 lung; MALME-3M melanoma; UACC-257 melanoma; HCT-15 colon; SF-268 CNS; EKVX NSCLC; LOX IMVI melanoma; 786-0 renal; OVCAR-4 ovarian.
Holding throughout (experiment): growth of human tumour cells (NCI), 48 h

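Dose response: 5 concentrations. Exposure: 48 h. Format: 96-well plates. Endpoint: linear interpolation; highest concentration if not reached. At the TGI there is no net growth.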

Consider `COc1cc([C@H]2Oc3c(OC)cc(CCCO)cc3[C@@H]2CO)ccc1O`, for which the TGI with UACC-62 melanoma, with PC-3 prostate, with SF-295 CNS, with NCI-H522 lung, in the test on MALME-3M melanoma and with UACC-257 melanoma was above 100 µM throughout. For the same compound, the TGI in the test on HCT-15 colon, in the test with SF-268 CNS, in the test on EKVX NSCLC, in the test with LOX IMVI melanoma, with 786-0 renal and in the test with OVCAR-4 ovarian was above 100 µM throughout.
For the compound `N#CC12C(=O)N3C(=NC(c4ccccc4)NC3c3ccccc3)C1(C#N)C(c1ccccc1)NC1=C2CCCC1` (configuration not stated), the TGI in the test on UACC-62 melanoma, in the test with PC-3 prostate, in the test with SF-295 CNS, with NCI-H522 lung, in the test with MALME-3M melanoma and in the test with UACC-257 melanoma was above 100 µM throughout. Besides, the TGI in the test on HCT-15 colon, in the test with SF-268 CNS, with EKVX NSCLC, in the test with LOX IMVI melanoma, in the test with 786-0 renal and in the test on OVCAR-4 ovarian was above 100 µM throughout.
As for `CSCCCNC(=O)c1csc(-c2csc(CCNC(=O)CNC(=O)CNC(=O)CNC(=O)OC(C)(C)C)n2)n1`, the TGI in the test on UACC-62 melanoma, in the test on PC-3 prostate, with SF-295 CNS, in the test with NCI-H522 lung, with MALME-3M melanoma and in the test with UACC-257 melanoma was above 100 µM in each case. Besides, the TGI in the test with HCT-15 colon, in the test on SF-268 CNS, with EKVX NSCLC, with LOX IMVI melanoma, in the test with 786-0 renal and in the test on OVCAR-4 ovarian was above 100 µM each time.
With `COc1cc(/C=C2\Cc3cc(OC)c(OC)cc3C2=O)cc(OC)c1`, the TGI in the test on UACC-62 melanoma is above 89.4 µM; with PC-3 prostate, above 100 µM; in the test with SF-295 CNS, 41.7 µM; in the test on NCI-H522 lung it was above 100 µM; in the test on MALME-3M melanoma, above 100 µM; in the test on UACC-257 melanoma it was above 100 µM. Also, the TGI in the test with HCT-15 colon was above 100 µM; in the test with SF-268 CNS, above 100 µM; in the test with EKVX NSCLC it was above 100 µM; with LOX IMVI melanoma, above 100 µM; in the test with 786-0 renal it was above 56.6 µM; in the test with OVCAR-4 ovarian it was above 88.7 µM.
In the case of `CCOC(=O)C(NC(=O)CC)(Nc1ccc(S(=O)(=O)Nc2nc(C)cc(C)n2)cc1)C(F)(F)F` (configuration not stated), the TGI with UACC-62 melanoma, in the test on PC-3 prostate, in the test on SF-295 CNS, in the test on NCI-H522 lung, with MALME-3M melanoma and in the test on UACC-257 melanoma was above 100 µM each time. Moreover, the TGI in the test with HCT-15 colon, with SF-268 CNS, in the test with EKVX NSCLC, in the test on LOX IMVI melanoma, with 786-0 renal and with OVCAR-4 ovarian was above 100 µM in each case.
Turning to `C=C(Br)CNCC(=C)Br`, the TGI with UACC-62 melanoma was above 100 µM; in the test with PC-3 prostate, above 100 µM; in the test on SF-295 CNS, above 100 µM; in the test on NCI-H522 lung, above 100 µM; with MALME-3M melanoma it was above 100 µM; in the test with UACC-257 melanoma it was 98.6 µM. Besides, the TGI in the test on HCT-15 colon, in the test with SF-268 CNS, with EKVX NSCLC, in the test with LOX IMVI melanoma, with 786-0 renal and in the test on OVCAR-4 ovarian was above 100 µM throughout.
Regarding `N#Cc1c(Nc2nc3ccccc3s2)c2ccccc2n2c1nc1ccccc12`, the TGI in the test on UACC-62 melanoma, with PC-3 prostate, in the test on SF-295 CNS, in the test with NCI-H522 lung, in the test on MALME-3M melanoma and with UACC-257 melanoma was above 100 µM each time. Moreover, the TGI in the test on HCT-15 colon, in the test with SF-268 CNS, with EKVX NSCLC, in the test on LOX IMVI melanoma, in the test on 786-0 renal and in the test with OVCAR-4 ovarian was above 100 µM in each case.
Turning to `Cc1ccc(N=C2SC(c3ccc(C)cc3)(c3ccc(C)cc3)c3ccccc32)cc1`, the TGI in the test on UACC-62 melanoma, with PC-3 prostate, with SF-295 CNS, in the test with NCI-H522 lung, in the test with MALME-3M melanoma and in the test on UACC-257 melanoma was above 100 µM throughout. Further, the TGI in the test with HCT-15 colon, in the test on SF-268 CNS, in the test with EKVX NSCLC, in the test on LOX IMVI melanoma, in the test on 786-0 renal and with OVCAR-4 ovarian was above 100 µM each time.
For `CCOC(=O)c1c(N2CCOCC2)[nH]c(=O)c(C(c2cccs2)c2c(O)c(C(=O)OCC)c(N3CCOCC3)[nH]c2=O)c1O`, the TGI with UACC-62 melanoma, in the test with PC-3 prostate, in the test on SF-295 CNS, with NCI-H522 lung, in the test on MALME-3M melanoma and in the test on UACC-257 melanoma was above 100 µM throughout. In addition, the TGI in the test on HCT-15 colon, in the test with SF-268 CNS, with EKVX NSCLC, in the test with LOX IMVI melanoma, in the test on 786-0 renal and with OVCAR-4 ovarian was above 100 µM each time.
In the case of `CC1(C)CC2=C(Sc3ccccc3N2)C(=O)C1C(=O)C(=O)Nc1cc(Cl)ccc1Cl` (configuration not stated), the TGI with UACC-62 melanoma, in the test on PC-3 prostate, with SF-295 CNS, in the test on NCI-H522 lung, with MALME-3M melanoma and in the test with UACC-257 melanoma was above 100 µM in each case. Further, the TGI in the test on HCT-15 colon, in the test on SF-268 CNS, with EKVX NSCLC, with LOX IMVI melanoma, with 786-0 renal and in the test on OVCAR-4 ovarian was above 100 µM in each case.
`CC(NNC(=O)c1ccncc1)c1ccc(Cl)c(Cl)c1` (configuration not stated): the TGI in the test on UACC-62 melanoma, in the test with PC-3 prostate, in the test on SF-295 CNS, in the test with NCI-H522 lung, in the test on MALME-3M melanoma and with UACC-257 melanoma was above 100 µM in each case. The TGI with HCT-15 colon, in the test on SF-268 CNS, in the test on EKVX NSCLC, in the test on LOX IMVI melanoma, in the test with 786-0 renal and in the test on OVCAR-4 ovarian was above 100 µM in each case.
